For 22 compounds, IC50 results are on record in patent US7585883B2, “Substituted pyridines and their uses” (Rigel Pharmaceuticals, Inc., priority 2004, dated 2009).

SMILES strings stand for the structures.

In experiment [1] the test system is cultured human mast cells (CHMC). As to the kind of experiment: CHMC low cell density IgE activation: tryptase assay (IgE-induced degranulation). It is filed as cell-based. Conditions: anti-IgE stimulation, tryptase release, read-out: IgE (first symbol of IgE/Iono): IC50 of IgE-induced degranulation. How it is done:
Inhibition of degranulation was measured at both low and high cell density by quantifying the release of the granule specific factors tryptase, histamine and hexosaminidase. Inhibition of release and/or synthesis of lipid mediators was assessed by measuring the release of leukotriene LTC4 and inhibition of release and/or synthesis of cytokines was monitored by quantifying TNF-α, IL-6 and IL-13. Tryptase and hexosaminidase were quantified using fluorogenic substrates as described in their respective examples. Histamine, TNFα, IL-6, IL-13 and LTC4 were quantified using the following commercial ELISA kits: histamine (Immunotech #2015, Beckman Coulter), TNFα (Biosource #KHC3011), IL-6 (Biosource #KMC0061), IL-13 (Biosource #KHC0132) and LTC4 (Cayman Chemical #520211). The protocols of the various assays are provided below.
7.2.7 CHMC Low Cell Density IgE Activation: Tryptase and LTC4 Assays
(§1) To duplicate 96-well U-bottom plates (Costar 3799) add 65 ul of compound dilutions or control samples that have been prepared in MT [137 mM NaCl, 2.7 mM KCl, 1.8 mM CaCl2, 1.0 mM MgCl2, 5.6 mM Glucose, 20 mM Hepes (pH 7.4), 0.1% Bovine Serum Albumin, (Sigma A4503)] containing 2% MeOH and 1% DMSO. Pellet CHMC cells (980 rpm, 10 min) and resuspend in pre-warmed MT. Add 65 ul of cells to each 96-well plate. Depending on the degranulation activity for each particular CHMC donor, load 1000-1500 cells/well. Mix four times followed by a 1 hr incubation at 37° C. During the 1 hr incubation, prepare 6× anti-IgE solution [rabbit anti-human IgE (1 mg/ml, Bethyl Laboratories A80-109A) diluted 1:167 in MT buffer]. Stimulate cells by adding 25 ul of 6× anti-IgE solution to the appropriate plates. Add 25 ul MT to un-stimulated control wells. Mix twice following addition of the anti-IgE. Incubate at 37° C. for 30 minutes. During the 30 minute incubation, dilute the 20 mM tryptase substrate stock solution [(Z-Ala-Lys-Arg-AMC 2TFA; Enzyme Systems Products, #AMC-246)] 1:2000 in tryptase assay buffer [0.1 M Hepes (pH 7.5), 10% w/v Glycerol, 10 uM Heparin (Sigma H-4898) 0.01% NaN3]. Spin plates at 1000 rpm for 10 min to pellet cells. Transfer 25 ul of supernatant to a 96-well black bottom plate and add 100 ul of freshly diluted tryptase substrate solution to each well. Incubate plates at room temperature for 30 min. Read the optical density of the plates at 355 nm/460 nm on a spectrophotometric plate reader.

For experiment [2] the test system is unchanged. As to the kind of experiment: CHMC low cell density ionomycin activation: tryptase assay (ionomycin-induced degranulation). It is filed as cell-based. As to conditions: ionomycin 2 μM final, tryptase release, read-out: Iono (second symbol of IgE/Iono): IC50 of ionomycin-induced degranulation. How it is done:
as §1
To confirm that many of the pyridine compounds of the invention exert their inhibitory activity by blocking or inhibiting the early IgE receptor signal transduction cascade, several of the compounds were tested in cellular assays for ionomycin-induced degranulation, as described below.
Assays for ionomycin-induced mast cell degranulation were carried out as described for the CHMC Low Density IgE Activation assays, supra, with the exception that during the 1 hour incubation, 6× ionomycin solution [5 mM ionomycin (Sigma I-0634) in MeOH (stock) diluted 1:416.7 in MT buffer (2 μM final)] was prepared and cells were stimulated by adding 25 μl of the 6× ionomycin solution to the appropriate plates.

Take `O=C(OCCSc1ccc([N+](=O)[O-])cn1)c1cccc(Cl)c1` [Compound 5, 2-[(5-Nitro-2-pyridinyl)thio]ethyl-3-chlorobenzoate]: the IC50 in experiment [1] and in experiment [2] was more than 10 µM each time.

For the compound `O=C(OCCS(=O)(=O)c1ccc([N+](=O)[O-])cn1)c1cccc(Cl)c1` [Compound 6, 2-[(5-Nitro-2-pyridinyl)sulfonyl]ethyl 3-chlorobenzoate], the IC50 in experiment [1] and in experiment [2] was less than 10 µM throughout.

`O=C(OCCS(=O)(=O)c1ccc([N+](=O)[O-])cn1)c1ccc(Cl)cc1` [Compound 9, 2-[(5-Nitro-2-pyridinyl)sulfonyl]ethyl 4-chlorobenzoate]: the IC50 in experiment [1] and in experiment [2] was less than 10 µM throughout.

As for `O=C(OCCS(=O)(=O)c1ccc([N+](=O)[O-])cn1)c1cccc(C(F)(F)F)c1` [Compound 11, 2-[(5-Nitro-2-pyridinyl)sulfonyl]ethyl 3-trifluoromethylbenzoate], the IC50 in experiment [1] and in experiment [2] was less than 10 µM each time.

With `O=C(OCCS(=O)(=O)c1ccc([N+](=O)[O-])cn1)c1ccccc1C(F)(F)F` [Compound 12, 2-[(5-Nitro-2-pyridinyl)sulfonyl]ethyl-2-trifluoromethylbenzoate], the IC50 in experiment [1] and in experiment [2] was less than 10 µM in each case.

Consider `O=C(OCCS(=O)(=O)c1ccc([N+](=O)[O-])cn1)c1ccccc1` [Compound 13, 2[(5-Nitro-2-pyridinyl)sulfonyl]ethyl benzoate], for which the IC50 in experiment [1] and in experiment [2] was less than 10 µM throughout.

Take `O=C(OCCS(=O)(=O)c1ccc([N+](=O)[O-])cn1)c1ccccc1F` [Compound 14, 2-[(5-Nitro-2-pyridinyl)sulfonyl]ethyl 2-fluorobenzoate]: the IC50 in experiment [1] and in experiment [2] was less than 10 µM throughout.

With `O=C(OCCS(=O)(=O)c1ccc([N+](=O)[O-])cn1)c1cccc(F)c1` [Compound 15, 2-[(5-Nitro-2-pyridinyl)sulfonyl]ethyl 3-fluorobenzoate], the IC50 in experiment [1] and in experiment [2] was less than 10 µM in each case.

Consider `O=C(OCCS(=O)(=O)c1ccc([N+](=O)[O-])cn1)c1ccc(F)cc1` [Compound 16, 2-[(5-Nitro-2-pyridinyl)sulfonyl]ethyl 4-fluorobenzoate], for which the IC50 in experiment [1] and in experiment [2] was less than 10 µM throughout.

As for `CC(=O)OCCS(=O)(=O)c1ccc([N+](=O)[O-])cn1` [Compound 17, 2-[(5-Nitro-2-pyridinyl)sulfonyl]ethyl acetate], the IC50 in experiment [1] and in experiment [2] was less than 10 µM in each case.

Take `CCC(=O)OCCS(=O)(=O)c1ccc([N+](=O)[O-])cn1` [Compound 18, 2-[(5-Nitro-2-pyridinyl)sulfonyl]ethyl propionate]: the IC50 in experiment [1] and in experiment [2] was less than 10 µM throughout.

As for `O=C(OCCS(=O)(=O)c1ccc([N+](=O)[O-])cn1)c1cccc(OC(F)(F)F)c1` [Compound 19, 2-[(5-Nitro-2-pyridinyl)sulfonyl]ethyl 3-trifluoromethoxybenzoate], the IC50 in experiment [1] and in experiment [2] was less than 10 µM each time.

In the case of `O=C(OCCS(=O)(=O)c1ccc(C(F)(F)F)cn1)c1cccc(Cl)c1` [Compound 21, 2-[(5-Trifluoromethyl-2-pyridinyl)-2-sulfonyl]ethyl 3-chlorobenzoate], the IC50 in experiment [1] and in experiment [2] was less than 10 µM throughout.

Regarding `CC(=O)NCCS(=O)(=O)c1ccc([N+](=O)[O-])cn1` [Compound 40], the IC50 in experiment [1] and in experiment [2] was less than 10 µM throughout.

Consider `CC(C)(C)OC(=O)NCCS(=O)(=O)c1ccc([N+](=O)[O-])cn1` [Compound 41, 2-[(2-{N-tert-Butoxycarbonylamino}ethyl)sulfonyl]-5-nitropyridine], for which the IC50 in experiment [1] and in experiment [2] was less than 10 µM each time.

Regarding `O=C(NCCS(=O)(=O)c1ccc([N+](=O)[O-])cn1)c1cccc(Cl)c1` [Compound 42, 3-Chloro-N-[2-({5-nitro-2-pyridinyl}sulfonyl)ethyl]benzamide], the IC50 in experiment [1] and in experiment [2] was less than 10 µM throughout.

Take `O=C(OCC[S+]([O-])c1ccc([N+](=O)[O-])cn1)c1cccc(Cl)c1` (centres unmarked) [Compound 50, 2-[(5-nitro-2-pyridinyl)sulfinyl]ethyl-3-chlorobenzoate]: the IC50 in experiment [1] and in experiment [2] was less than 10 µM each time.

As to `O=C(Nc1ccccc1)Nc1ccc(S(=O)(=O)CCOC(=O)c2cccc(Cl)c2)nc1` [Compound 55, 2-[(5-{Phenylureido}-2-pyridinyl)sulfonyl]ethyl-3-chlorobenzoate], the IC50 in experiment [1] and in experiment [2] was more than 10 µM throughout.

With `CCNC(=O)Nc1ccc(S(=O)(=O)CCOC(=O)c2cccc(Cl)c2)nc1` [Compound 56, 2-[(5-{Ethylureido}-2-pyridinyl)sulfonyl]ethyl-3-chlorobenzoate], the IC50 in experiment [1] and in experiment [2] was more than 10 µM throughout.

Turning to `O=C(Nc1ccc(OC(F)(F)F)cc1)Nc1ccc(S(=O)(=O)CCOC(=O)c2cccc(Cl)c2)nc1` [Compound 57, 2-[(5-{4-Trifluoromethoxyphenylureido}-2-pyridinyl)sulfonyl]ethyl-3-chlorobenzoate], the IC50 in experiment [1] and in experiment [2] was less than 10 µM in each case.

Turning to `O=C(OCCS(=O)(=O)c1ccc(N2C(=O)c3ccccc3C2=O)cn1)c1cccc(Cl)c1` [Compound 66, [(5-{1,3-Dihydro-1,3-dioxo-2H-isoindol-2-yl}-2-pyridinyl)sulfonyl]ethyl 3-chlorobenzoate], the IC50 in experiment [1] and in experiment [2] was less than 10 µM each time.

Turning to `O=C(OCCS(=O)(=O)c1ccc(N2C(=O)CCC2=O)cn1)c1cccc(Cl)c1` [Compound 67, [(5-{2,5-Dioxotetrahydro-1H-pyrrol-1-yl}-2-pyridinyl)sulfonyl]ethyl 3-chlorobenzoate], the IC50 in experiment [1] and in experiment [2] was more than 10 µM in each case.
